Source: patent US12116371B2, “Substituted pyridines as irreversible inhibitors of menin-MLL interaction” (BIOMEA FUSION, INC., priority 2018, dated 2024)
Where two headings read alike, the source gives them in different places.

Columns and labels:
[1] = test system: KG-1 cells; assay: Long term proliferation assay, Cell Titer-Glo read-out; format: cell-based; details: for IC50: Homo sapiens
Procedure: (§1) Compounds of invention are tested in the 5 suspension lines by 14-day long-term proliferation assay.
(§2) The compound is tested in 10-pt dose titration (client will determine the starting concentration and the dilution scheme) and the final DMSO concentration is kept at 0.2%.
(§3) On Day 0, in a flat bottom 96-well plate, add 100 μL of cells per well at the densities optimized. Prepare compounds in DMSO at 500× final concentration. Dilute the compounds with DMSO at the dilution. Dilute the compounds in media at 3× final concentration. Add 50 μL of compound or DMSO at 3× final concentration to each well. Final volume in each well is 150 μL, and final concentration of DMSO is 0.2%. Also include 3 untreated control wells, by adding 50 μL of media alone. Incubate plates for 96 hours.
(§4) To do this take the total viable cell count calculated using step: • 1. Take the average of the replicates for each dose in order to be used in splitting the cells. • 2. Use a 96 well V-bottom plate to spin down the cells to remove old media and compound to split the cells. • 3. Based on the split ratio place the proper amount of media and cells into the V-bottom plate, and spin the plate at 1100 rpm for 5 minutes. • 4. Following the spin remove the media, careful not to disturb the cell pellet. Re-suspend pellet in 100 μL fresh media, and add to a new 96-well flat bottom plate. • 5. Add fresh compound, in the same manner as Step 3). • 6. Incubate plates for 72 hours. Repeat steps 5)-10) on Day 7. • 7. Incubate plates for 96 hours. Repeat Step 5)-10) on Day 11. • 8. Incubate 72 hours and repeat step 5) to take a final count. • 9. Data Analysis
(§5) To calculate growth for days 4, 7, 11, and 14: • 1. Calculate the split factor for day 4 to 7, day 7 to 11, and day 11-14. The split factor is the viable cells/mL on Day X (either 4, 7 or 11) divided by the density the cells are being split back to. • 2. For growth of cells from day 4 to 7, multiply the day 7 viable cells/mL density by the split factor from day 4. • 3. For growth of cells from day 7 to 11, multiply the day 11 viable cells/mL density by the days 4, and 7 split factors. • 4. For growth of cells from Day 11 to 14, multiply the Day 14 viable cells/mL density by the days 4, 7, and 11 split factors. • 5. Plot growth on semi-log chart (viable cells/mL on Y axis, in log, and days on X axis). • 6. The growth inhibition was calculated with the formula ((untreated cell numbers-treated cell numbers)/untreated cell)). • 7. Calculate the IC50 for each compound in each line using XLFit (Sigmoidal Dose-Response Model, y=(Bottom+((Top-Bottom)/(1+((IC50/×)^Hill))))).

[2] = test system: OCI-AML-3 cells; assay: as above; format: cell-based; details: for IC50: Homo sapiens; for % max: OCI-AML3
Procedure: as §1, §2, §3, §4, §5

[3] = test system: NCI-H23 cells; assay: Proliferation assay, cells in adhesion; format: cell-based; details: for IC50: Homo sapiens
[4] = test system: MIAPaCa-2/AMG510 cells; assay: Proliferation assay, cells in adhesion; format: cell-based; details: for IC50: Homo sapiens
[5] = test system: KG-1 cells; assay: Long term proliferation assay, InCell read-out; format: cell-based; details: for IC50: Homo sapiens
Procedure: as §1, §2, §3, §4, §5

[6] = test system: OCI-AML-3 cells; assay: Long term proliferation assay, InCell read-out; format: cell-based; details: for IC50: Homo sapiens
Procedure: as §1, §2, §3, §4, §5

[7] = test system: MOLM-13 cells; assay: Long term proliferation assay, InCell read-out; format: cell-based, human; details: for IC50: Homo sapiens
Procedure: as §1, §2, §3, §4, §5

[8] = test system: MV4-11 cells; assay: Long term proliferation assay, InCell read-out; format: cell-based, human; details: for IC50: Homo sapiens
Procedure: as §1, §2, §3, §4, §5

## CN(C)C/C=C/C(=O)Nc1ccc(CC(=O)Nc2ccc(-c3cc4c(N5CCOCC5)ncnc4[nH]3)cc2)cc1 [Compound 5]
[1]; 96 h, Day 4, Cell Titer-Glo, read-out: Day 4 IC50
  IC50: > 5000 nM
[1]; 168 h, Day 7, Cell Titer-Glo, read-out: Day 7 IC50
  IC50: > 5000 nM
[1]; 264 h, Day 11, Cell Titer-Glo, read-out: Day 11 IC50
  IC50: 4680 nM
[1]; 336 h, Day 14, Cell Titer-Glo, read-out: Day 14 IC50
  IC50: 4070 nM
[1]; T4, CellTiter-Glo, read-out: IC50
  IC50: > 5000 nM
[1]; T4, CellTiter-Glo, read-out: pIC50 (converted)
  IC50: > 5010 nM
[1]; T11, CellTiter-Glo, read-out: IC50
  IC50: 4680 nM
[1]; T11, CellTiter-Glo, read-out: pIC50 (converted)
  IC50: 4680 nM
[1]; T4, CellTiter-Glo
  % max: <50%
[1]; T11, CellTiter-Glo
  % max: 59%
[2]; OCI-AML-3, 96 h, OCI-AML-3, Day 4, Cell Titer-Glo, read-out: Day 4 IC50
  IC50: 830 nM
[2]; OCI-AML-3, 168 h, OCI-AML-3, Day 7, Cell Titer-Glo, read-out: Day 7 IC50
  IC50: 660 nM
[2]; OCI-AML-3, 264 h, OCI-AML-3, Day 11, Cell Titer-Glo, read-out: Day 11 IC50
  IC50: 580 nM
[2]; OCI-AML-3, 336 h, OCI-AML-3, Day 14, Cell Titer-Glo, read-out: Day 14 IC50
  IC50: 600 nM
[2]; OCI-AML-3, OCI-AML3, T4, CellTiter-Glo, read-out: IC50
  IC50: 830 nM
[2]; OCI-AML-3, OCI-AML3, T4, CellTiter-Glo, read-out: pIC50 (converted)
  IC50: 832 nM
[2]; OCI-AML-3, OCI-AML3, T11, CellTiter-Glo, read-out: IC50
  IC50: 580 nM
[2]; OCI-AML-3, OCI-AML3, T11, CellTiter-Glo, read-out: pIC50 (converted)
  IC50: 575 nM
[2]; T4, CellTiter-Glo
  % max: 97%
[2]; T11, CellTiter-Glo
  % max: 99%
[3]; NCI-H23, NCI-H23, T4, read-out: IC50
  IC50: > 5000 nM
[3]; NCI-H23, NCI-H23, T4, read-out: pIC50 (converted)
  IC50: > 5010 nM
[3]; NCI-H23, NCI-H23, T7, read-out: IC50
  IC50: > 5000 nM
[3]; NCI-H23, NCI-H23, T7, read-out: pIC50 (converted)
  IC50: > 5010 nM
[3]; NCI-H23, NCI-H23, T11, read-out: IC50
  IC50: > 5000 nM
[3]; NCI-H23, NCI-H23, T11, read-out: pIC50 (converted)
  IC50: > 5010 nM
[3]; NCI-H23, T4
  % max: <50%
[3]; NCI-H23, T7
  % max: <50%
[3]; NCI-H23, T11
  % max: <50%
[4]; MIA PaCa-2, MIAPaCa-2/AMG510, T4, read-out: IC50
  IC50: 810 nM
[4]; MIA PaCa-2, MIAPaCa-2/AMG510, T4, read-out: pIC50 (converted)
  IC50: 813 nM
[4]; MIA PaCa-2, MIAPaCa-2/AMG510, T7, read-out: IC50
  IC50: 350 nM
[4]; MIA PaCa-2, MIAPaCa-2/AMG510, T7, read-out: pIC50 (converted)
  IC50: 347 nM
[4]; MIAPaCa-2/AMG510, T11, read-out: IC50
  IC50: 270 nM
[4]; MIAPaCa-2/AMG510, T11, read-out: pIC50 (converted)
  IC50: 269 nM
[4]; MIAPaCa-2/AMG510, T4
  % max: 92%
[4]; MIAPaCa-2/AMG510, T7
  % max: 98%
[4]; MIAPaCa-2/AMG510, T11
  % max: 99%
[5]; KG-1, 96 h, KG-1, Day 4, read-out: Day 4 IC50
  IC50: > 5000 nM
[5]; KG-1, 264 h, KG-1, Day 11, read-out: Day 11 IC50
  IC50: > 4470 nM
[5]; KG-1, KG-1, T4, read-out: IC50
  IC50: > 5000 nM
[5]; KG-1, KG-1, T4, read-out: pIC50 (converted)
  IC50: > 5010 nM
[5]; KG-1, KG-1, T11, read-out: IC50
  IC50: 4470 nM
[5]; KG-1, KG-1, T11, read-out: pIC50 (converted)
  IC50: 4470 nM
[5]; KG-1, T4
  % max: <50%
[5]; KG-1, T11
  % max: 52%
[6]; OCI-AML-3, 96 h, OCI-AML-3, Day 4, read-out: Day 4 IC50
  IC50: 450 nM
[6]; OCI-AML-3, 264 h, OCI-AML-3, Day 11, read-out: Day 11 IC50
  IC50: 460 nM
[6]; OCI-AML-3, OCI-AML3, T4, read-out: IC50
  IC50: 450 nM
[6]; OCI-AML-3, OCI-AML3, T4, read-out: pIC50 (converted)
  IC50: 447 nM
[6]; OCI-AML-3, OCI-AML3, T11, read-out: IC50
  IC50: 460 nM
[6]; OCI-AML-3, OCI-AML3, T11, read-out: pIC50 (converted)
  IC50: 457 nM
[6]; OCI-AML3, T4
  % max: 100%
[6]; OCI-AML3, T11
  % max: 100%
[7]; MOLM-13, 96 h, MOLM-13, Day 4, read-out: Day 4 IC50
  IC50: 150 nM
[7]; MOLM-13, 264 h, MOLM-13, Day 11, read-out: Day 11 IC50
  IC50: 380 nM
[7]; MOLM-13, MOLM-13, T4, read-out: IC50
  IC50: 150 nM
[7]; MOLM-13, MOLM-13, T4, read-out: pIC50 (converted)
  IC50: 148 nM
[7]; MOLM-13, MOLM-13, T11, read-out: IC50
  IC50: 380 nM
[7]; MOLM-13, MOLM-13, T11, read-out: pIC50 (converted)
  IC50: 380 nM
[7]; MOLM-13, T4
  % max: 97%
[7]; MOLM-13, T11
  % max: 98%
[8]; MV4-11, 96 h, MV4-11, Day 4, read-out: Day 4 IC50
  IC50: 420 nM
[8]; MV4-11, 264 h, MV4-11, Day 11, read-out: Day 11 IC50
  IC50: 490 nM
[8]; MV4-11, MV4-11, T4, read-out: IC50
  IC50: 420 nM
[8]; MV4-11, MV4-11, T4, read-out: pIC50 (converted)
  IC50: 417 nM
[8]; MV4-11, MV4-11, T11, read-out: IC50
  IC50: 490 nM
[8]; MV4-11, MV4-11, T11, read-out: pIC50 (converted)
  IC50: 490 nM
[8]; MV4-11, T4
  % max: 83%
[8]; MV4-11, T11
  % max: 83%
